# Test results reported in patent publication US20020137929A1, “1 - (3-heterocyclylphenyl) isothiourea, -isourea, -guanidine and -amidine herbicidal agents” (Intellectual Property Department, BASF Aktiengesellschaft, priority 1998, published 2002).
# Tests used:
# ZEAMX (Corn, Field) = assay: Preemergence herbicidal evaluation; type: in vivo, Zea mays; conditions: rated 4-5 weeks after treatment
# Procedure, shortened: (§1)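 Seeds were mixed with potting soil and planted on about one inch of soil, then sprayed with test compound in aqueous acetone at about 0.0156 to 0.500 kg per hectare. Plants grew under standard greenhouse care and were visually rated 0-9 against untreated controls 4-5 weeks post-treatment.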
# CYPSE (Flatsedge) [1] = assay: Preemergence weed control under flooded paddy conditions; type: in vivo, Cyperus serotinus; conditions: rated 3-4 weeks after treatment
# Procedure, shortened: (§2)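 Values are visual 0-9 scores against a control for a preemergence application into paddy flood water at about 0.0313 to 0.500 kg/ha. Greenhouse duration was three to four weeks.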
# CYPIR (Rice Flatsedge) = assay: as above; type: in vivo, Cyperus iria; conditions: rated 3-4 weeks after treatment
# Procedure, shortened: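 Silt loam, seeds in top 0.5 cm; flood held 1.5-3 cm; test cpd as acetone/water 50/50 into flood water, ~0.0313-0.500 kg/ha a.i.; greenhouse 3-4 wk; visual 0-9 score vs control.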
# CASOB (Sicklepod) [2] = assay: Postemergence herbicidal evaluation; type: in vivo, Cassia obtusifolia
# Procedure, shortened: (§3)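 Each compound, dispersed in an acetone/water mix (50/50) carrying 0.5% TWEEN 20, is nozzle-sprayed at 40 psi on approximately two-week-old seedlings at about 0.0156–0.500 kg/ha. Plants are assessed 4–5 weeks afterward on a 0–9 scale relative to control; duplicate tests are averaged.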
# ORYSAT (Rice, Tebonnet) = assay: Postemergence herbicidal evaluation; type: in vivo, Oryza sativa, (L.) Tebonnet
# Procedure, shortened: as §3
# GALAP (Galium) [3] = assay: Postemergence herbicidal evaluation; type: in vivo, Galium aparine
# Procedure, shortened: as §3
# SETVI (Foxtail, Green) = assay: Postemergence herbicidal evaluation; type: in vivo, Setaria viridis
# Procedure, shortened: as §3
# [4] = test system: GLXMAW (Soybean, Williams); assay: Postemergence herbicidal evaluation; type: in vivo, Glycine max, (L.) Merr. cv Williams
# Procedure, shortened: as §3
# GALAP (Galium) [5] = assay: Preemergence herbicidal evaluation; type: in vivo, Galium aparine; conditions: rated 4-5 weeks after treatment
# Procedure, shortened: as §1
# [6] = test system: SAGPY (Arrowhead (Pygmaea)); assay: Preemergence weed control under flooded paddy conditions; type: in vivo, Sagittaria pygmaea; conditions: rated 3-4 weeks after treatment
# Procedure, shortened: as §2
# CYPSE (Flatsedge) [7] = assay: Postemergence weed control under flooded paddy conditions; type: in vivo, Cyperus serotinus; conditions: postemergence weeds, 3-4 weeks after treatment
# Procedure, shortened: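 Containers holding 3–5 cm weeds and rice at 1.5–2.5 leaves are flooded to 1.5–3 cm above soil. Compound in 50/50 v/v aqueous/acetone is then added directly to the water, about 0.0313–0.500 kg/ha. Plants are kept in the greenhouse and rated 0–9 visually at 3–4 weeks.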
# CASOB (Sicklepod) [8] = assay: Preemergence herbicidal evaluation; type: in vivo, Cassia obtusifolia; conditions: rated 4-5 weeks after treatment
# Procedure, shortened: as §1
# [9] = test system: CHEAL (Lambsquarters, Common); assay: Postemergence herbicidal evaluation; type: in vivo, Chenopodium album
# Procedure, shortened: as §3
# ECHCG (Barnyardgrass) = assay: Postemergence herbicidal evaluation; type: in vivo, Echinochloa crus-galli
# Procedure, shortened: as §3
# AMBEL (Ragweed, Common) = assay: Postemergence herbicidal evaluation; type: in vivo, Ambrosia artemisifolia
# Procedure, shortened: as §3
smiles,measurement,setting,value
"Cn1c(C(F)(F)F)cc(=O)n(-c2cc(N=C3SCC(=O)N3CCC(=O)O)c(Cl)cc2F)c1=O [Compound 31, 2-{{2-Chloro-5-[3,6-dihydro-3-methyl-2,6-dioxo-4-(trifluoromethyl)-1(2H)-pyrimidinyl]-4-fluoro-phenyl}imino}-4-oxo-3-thiazolidinepropionic acid]",Preemergence herbicidal rating ZEAMX,"ZEAMX (Corn, Field); rate 0.0625 kg/ha",3.0
same,Preemergence herbicidal rating ZEAMX,"ZEAMX (Corn, Field); rate 0.1250 kg/ha",7.0
same,Preemergence herbicidal rating ZEAMX,"ZEAMX (Corn, Field); rate 0.2500 kg/ha",9.0
same,Herbicidal rating CYPSE,CYPSE (Flatsedge) [1]; 0.0625 kg/ha,0.0
same,Herbicidal rating CYPSE,CYPSE (Flatsedge) [1]; 0.1250 kg/ha,0.0
same,Herbicidal rating CYPSE,CYPSE (Flatsedge) [1]; 0.2500 kg/ha,0.0
same,Herbicidal rating CYPIR,CYPIR (Rice Flatsedge); 0.0625 kg/ha,0.0
same,Herbicidal rating CYPIR,CYPIR (Rice Flatsedge); 0.1250 kg/ha,0.0
same,Herbicidal rating CYPIR,CYPIR (Rice Flatsedge); 0.2500 kg/ha,2.5
same,Postemergence herbicidal rating CASOB,CASOB (Sicklepod) [2]; Rate 0.0158 kg/ha,0.0
same,Postemergence herbicidal rating CASOB,CASOB (Sicklepod) [2]; Rate 0.0315 kg/ha,0.0
same,Postemergence herbicidal rating CASOB,CASOB (Sicklepod) [2]; Rate 0.0630 kg/ha,0.0
same,Postemergence herbicidal rating ORYSAT,"ORYSAT (Rice, Tebonnet); Rate 0.0158 kg/ha",3.5
same,Postemergence herbicidal rating ORYSAT,"ORYSAT (Rice, Tebonnet); Rate 0.0315 kg/ha",4.0
same,Postemergence herbicidal rating ORYSAT,"ORYSAT (Rice, Tebonnet); Rate 0.0630 kg/ha",5.5
same,Postemergence herbicidal rating GALAP,GALAP (Galium) [3]; Rate 0.0158 kg/ha,0.0
same,Postemergence herbicidal rating GALAP,GALAP (Galium) [3]; Rate 0.0315 kg/ha,1.0
same,Postemergence herbicidal rating GALAP,GALAP (Galium) [3]; Rate 0.0630 kg/ha,3.0
same,Postemergence herbicidal rating SETVI,"SETVI (Foxtail, Green); Rate 0.0158 kg/ha",0.0
same,Postemergence herbicidal rating SETVI,"SETVI (Foxtail, Green); Rate 0.0315 kg/ha",0.0
same,Postemergence herbicidal rating SETVI,"SETVI (Foxtail, Green); Rate 0.0630 kg/ha",7.0
same,Postemergence herbicidal rating GLXMAW,[4]; Rate 0.0158 kg/ha,6.5
same,Postemergence herbicidal rating GLXMAW,[4]; Rate 0.0315 kg/ha,6.5
same,Postemergence herbicidal rating GLXMAW,[4]; Rate 0.0630 kg/ha,7.0
same,Preemergence herbicidal rating GALAP,GALAP (Galium) [5]; rate 0.0625 kg/ha,0.0
same,Preemergence herbicidal rating GALAP,GALAP (Galium) [5]; rate 0.2500 kg/ha,6.0
same,Herbicidal rating SAGPY,[6]; 0.0625 kg/ha,0.0
same,Herbicidal rating SAGPY,[6]; 0.1250 kg/ha,0.0
same,Herbicidal rating SAGPY,[6]; 0.2500 kg/ha,0.0
same,Herbicidal rating CYPSE,CYPSE (Flatsedge) [7]; rate 0.0625 kg/ha,0.0
same,Herbicidal rating CYPSE,CYPSE (Flatsedge) [7]; rate 0.1250 kg/ha,0.0
same,Herbicidal rating CYPSE,CYPSE (Flatsedge) [7]; rate 0.2500 kg/ha,0.0
same,Preemergence herbicidal rating CASOB,CASOB (Sicklepod) [8]; rate 0.0625 kg/ha,0.0
same,Preemergence herbicidal rating CASOB,CASOB (Sicklepod) [8]; rate 0.1250 kg/ha,2.0
same,Preemergence herbicidal rating CASOB,CASOB (Sicklepod) [8]; rate 0.2500 kg/ha,1.0
same,Postemergence herbicidal rating CHEAL,[9]; Rate 0.0158 kg/ha,0.0
same,Postemergence herbicidal rating CHEAL,[9]; Rate 0.0315 kg/ha,2.0
same,Postemergence herbicidal rating CHEAL,[9]; Rate 0.0630 kg/ha,7.0
same,Postemergence herbicidal rating ECHCG,ECHCG (Barnyardgrass); Rate 0.0158 kg/ha,0.0
same,Postemergence herbicidal rating ECHCG,ECHCG (Barnyardgrass); Rate 0.0315 kg/ha,0.0
same,Postemergence herbicidal rating ECHCG,ECHCG (Barnyardgrass); Rate 0.0630 kg/ha,5.0
same,Postemergence herbicidal rating AMBEL,"AMBEL (Ragweed, Common); Rate 0.0158 kg/ha",0.0
same,Postemergence herbicidal rating AMBEL,"AMBEL (Ragweed, Common); Rate 0.0315 kg/ha",2.0
same,Postemergence herbicidal rating AMBEL,"AMBEL (Ragweed, Common); Rate 0.0630 kg/ha",7.0
"O=C(O)CC1SC(=Nc2cc(N3C(=O)C4=C(CCCC4)C3=O)c(F)cc2Cl)N(CC(=O)O)C1=O (stereo not shown) [Compound 48, 2-{[2-Chloro-5-(1-cyclohexene-1,2-dicarboximido)-4-fluorophenyl]imino}-4-oxo-3,5-thiazolidinediacetic acid]",Preemergence herbicidal rating ZEAMX,"ZEAMX (Corn, Field); rate 0.0156 kg/ha",0.0
same,Preemergence herbicidal rating ZEAMX,"ZEAMX (Corn, Field); rate 0.0313 kg/ha",0.0
same,Preemergence herbicidal rating ZEAMX,"ZEAMX (Corn, Field); rate 0.0625 kg/ha",0.0
same,Preemergence herbicidal rating ZEAMX,"ZEAMX (Corn, Field); rate 0.1250 kg/ha",0.0
same,Preemergence herbicidal rating ZEAMX,"ZEAMX (Corn, Field); rate 0.2500 kg/ha",2.0
same,Herbicidal rating CYPSE,CYPSE (Flatsedge) [1]; 0.1250 kg/ha,0.0
same,Herbicidal rating CYPSE,CYPSE (Flatsedge) [1]; 0.2500 kg/ha,0.0
same,Herbicidal rating CYPIR,CYPIR (Rice Flatsedge); 0.1250 kg/ha,2.0
same,Herbicidal rating CYPIR,CYPIR (Rice Flatsedge); 0.2500 kg/ha,5.0
same,Postemergence herbicidal rating CASOB,CASOB (Sicklepod) [2]; Rate 0.0156 kg/ha,0.0
same,Postemergence herbicidal rating CASOB,CASOB (Sicklepod) [2]; Rate 0.0313 kg/ha,2.0
same,Postemergence herbicidal rating CASOB,CASOB (Sicklepod) [2]; Rate 0.0625 kg/ha,3.0
same,Postemergence herbicidal rating ORYSAT,"ORYSAT (Rice, Tebonnet); Rate 0.0156 kg/ha",0.5
same,Postemergence herbicidal rating ORYSAT,"ORYSAT (Rice, Tebonnet); Rate 0.0313 kg/ha",0.5
same,Postemergence herbicidal rating ORYSAT,"ORYSAT (Rice, Tebonnet); Rate 0.0625 kg/ha",2.0
same,Postemergence herbicidal rating GALAP,GALAP (Galium) [3]; Rate 0.0156 kg/ha,0.0
same,Postemergence herbicidal rating GALAP,GALAP (Galium) [3]; Rate 0.0313 kg/ha,0.0
same,Postemergence herbicidal rating GALAP,GALAP (Galium) [3]; Rate 0.0625 kg/ha,0.0
same,Postemergence herbicidal rating SETVI,"SETVI (Foxtail, Green); Rate 0.0156 kg/ha",0.0
same,Postemergence herbicidal rating SETVI,"SETVI (Foxtail, Green); Rate 0.0313 kg/ha",0.0
same,Postemergence herbicidal rating SETVI,"SETVI (Foxtail, Green); Rate 0.0625 kg/ha",2.0
same,Postemergence herbicidal rating GLXMAW,[4]; Rate 0.0156 kg/ha,5.5
same,Postemergence herbicidal rating GLXMAW,[4]; Rate 0.0313 kg/ha,6.0
same,Postemergence herbicidal rating GLXMAW,[4]; Rate 0.0625 kg/ha,7.5
same,Preemergence herbicidal rating GALAP,GALAP (Galium) [5]; rate 0.0156 kg/ha,0.0
same,Preemergence herbicidal rating GALAP,GALAP (Galium) [5]; rate 0.0313 kg/ha,0.0
same,Preemergence herbicidal rating GALAP,GALAP (Galium) [5]; rate 0.0625 kg/ha,0.0
same,Preemergence herbicidal rating GALAP,GALAP (Galium) [5]; rate 0.1250 kg/ha,0.0
same,Preemergence herbicidal rating GALAP,GALAP (Galium) [5]; rate 0.2500 kg/ha,0.0
same,Herbicidal rating SAGPY,[6]; 0.1250 kg/ha,3.0
same,Herbicidal rating SAGPY,[6]; 0.2500 kg/ha,6.0
same,Herbicidal rating CYPSE,CYPSE (Flatsedge) [7]; rate 0.1250 kg/ha,0.0
same,Herbicidal rating CYPSE,CYPSE (Flatsedge) [7]; rate 0.2500 kg/ha,0.0
same,Preemergence herbicidal rating CASOB,CASOB (Sicklepod) [8]; rate 0.0156 kg/ha,0.0
same,Preemergence herbicidal rating CASOB,CASOB (Sicklepod) [8]; rate 0.0313 kg/ha,0.0
same,Preemergence herbicidal rating CASOB,CASOB (Sicklepod) [8]; rate 0.0625 kg/ha,0.0
same,Preemergence herbicidal rating CASOB,CASOB (Sicklepod) [8]; rate 0.1250 kg/ha,0.0
same,Preemergence herbicidal rating CASOB,CASOB (Sicklepod) [8]; rate 0.2500 kg/ha,3.0
same,Postemergence herbicidal rating CHEAL,[9]; Rate 0.0156 kg/ha,3.0
same,Postemergence herbicidal rating CHEAL,[9]; Rate 0.0313 kg/ha,4.0
same,Postemergence herbicidal rating CHEAL,[9]; Rate 0.0625 kg/ha,4.0
same,Postemergence herbicidal rating ECHCG,ECHCG (Barnyardgrass); Rate 0.0156 kg/ha,0.0
same,Postemergence herbicidal rating ECHCG,ECHCG (Barnyardgrass); Rate 0.0313 kg/ha,2.0
same,Postemergence herbicidal rating ECHCG,ECHCG (Barnyardgrass); Rate 0.0625 kg/ha,2.0
same,Postemergence herbicidal rating AMBEL,"AMBEL (Ragweed, Common); Rate 0.0156 kg/ha",3.0
same,Postemergence herbicidal rating AMBEL,"AMBEL (Ragweed, Common); Rate 0.0313 kg/ha",5.0
same,Postemergence herbicidal rating AMBEL,"AMBEL (Ragweed, Common); Rate 0.0625 kg/ha",9.0
